Results from ChEMBL document CHEMBL5303573, “Mapping human microbiome drug metabolism by gut bacteria and their genes” (Nature, 2019).

Columns and labels:
[1] = The drug is tested on Bifidobacterium breve strain: DSM20213 for biotransformation. The drug concentrations were measured before and after a 12-h incubation by liquid-chromatography-coupled mass spectrometry (LC–MS); details: 2 µM
[2] = The drug is tested on Bifidobacterium longum subsp. Infantis strain: CCUG52486 for biotransformation. The drug concentrations were measured before and after a 12-h incubation by liquid-chromatography-coupled mass spectrometry (LC–MS); details: 2 µM
[3] = The drug is tested on Bacteroides coprophilus strain: DSM18228 for biotransformation. The drug concentrations were measured before and after a 12-h incubation by liquid-chromatography-coupled mass spectrometry (LC–MS); details: 2 µM
[4] = The drug is tested on Bacteroides fragilis strain: HMW610 for biotransformation. The drug concentrations were measured before and after a 12-h incubation by liquid-chromatography-coupled mass spectrometry (LC–MS); details: 2 µM
[5] = The drug is tested on Bacteroides fragilis strain: ATCC43859 for biotransformation. The drug concentrations were measured before and after a 12-h incubation by liquid-chromatography-coupled mass spectrometry (LC–MS); details: 2 µM
[6] = The drug is tested on Bacteroides pectinophilus strain: ATCC43243 for biotransformation. The drug concentrations were measured before and after a 12-h incubation by liquid-chromatography-coupled mass spectrometry (LC–MS); details: 2 µM
[7] = The drug is tested on Parabacteroides merdae strain: ATCC43184 for biotransformation. The drug concentrations were measured before and after a 12-h incubation by liquid-chromatography-coupled mass spectrometry (LC–MS); details: 2 µM
[8] = The drug is tested on Anaerotruncus colihominis strain: DSM17241 for biotransformation. The drug concentrations were measured before and after a 12-h incubation by liquid-chromatography-coupled mass spectrometry (LC–MS); details: 2 µM
[9] = The drug is tested on Clostridium sp. strain: fecal isolate for biotransformation. The drug concentrations were measured before and after a 12-h incubation by liquid-chromatography-coupled mass spectrometry (LC–MS); details: 2 µM
[10] = The drug is tested on Ruminococcus lactaris strain: ATCC29176 for biotransformation. The drug concentrations were measured before and after a 12-h incubation by liquid-chromatography-coupled mass spectrometry (LC–MS); details: 2 µM
[11] = The drug is tested on Ruminococcus torques strain: ATCC27756 for biotransformation. The drug concentrations were measured before and after a 12-h incubation by liquid-chromatography-coupled mass spectrometry (LC–MS); type: ADME; design: dose 2 uM, timepoint 0 vs 12 hours; details: 2 µM
[12] = bacteroides eggerthii, 12 h, 2 µM
[13] = bacteroides fragilis, 12 h, 2 µM
Description: The drug is tested on Bacteroides fragilis strain: 3397 (T10) for biotransformation. The drug concentrations were measured before and after a 12-h incubation by liquid-chromatography-coupled mass spectrometry (LC–MS)

[14] = bacteroides fragilis, 12 h, 2 µM; remark: listed apart in the source
[15] = bacteroides thetaiotaomicron, 12 h, 2 µM
[16] = parabacteroides distasonis, 12 h, 2 µM
[17] = parabacteroides johnsonii, 12 h, 2 µM
Description: The drug is tested on Parabacteroides johnsonii strain: DSM18315 for biotransformation. The drug concentrations were measured before and after a 12-h incubation by liquid-chromatography-coupled mass spectrometry (LC–MS)

[18] = The drug is tested on Bacteroides caccae strain: ATCC43185 for biotransformation. The drug concentrations were measured before and after a 12-h incubation by liquid-chromatography-coupled mass spectrometry (LC–MS); details: 2 µM
[19] = The drug is tested on Providencia rettgeri strain: DSM1131 for biotransformation. The drug concentrations were measured before and after a 12-h incubation by liquid-chromatography-coupled mass spectrometry (LC–MS); type: ADME; design: dose 2 uM, timepoint 0 vs 12 hours; details: 2 µM

Compound	Bacterial Biotransformation [1]	Bacterial Biotransformation [2]	Bacterial Biotransformation [3]	Bacterial Biotransformation [4]	Bacterial Biotransformation [5]	Bacterial Biotransformation [6]	Bacterial Biotransformation [7]	Bacterial Biotransformation [8]	Bacterial Biotransformation [9]	Bacterial Biotransformation [10]	Bacterial Biotransformation [11]	Bacterial Biotransformation [12]	Bacterial Biotransformation [13]	Bacterial Biotransformation [14]	Bacterial Biotransformation [15]	Bacterial Biotransformation [16]	Bacterial Biotransformation [17]	Bacterial Biotransformation [18]	Bacterial Biotransformation [19]
CC1=C(CC(=O)O)c2cc(F)ccc2/C1=C\c1ccc([S+](C)[O-])cc1 (configuration not stated)	Compound NOT metabolized	Compound NOT metabolized	Compound NOT metabolized	Compound NOT metabolized	Compound NOT metabolized	Compound NOT metabolized	Compound NOT metabolized	Compound NOT metabolized	Compound NOT metabolized	Compound NOT metabolized	Compound NOT metabolized	Compound NOT metabolized	Compound NOT metabolized	Compound NOT metabolized	Compound NOT metabolized	Compound NOT metabolized	Compound NOT metabolized		
COc1ccc(CCN(C)CCCC(C#N)(c2ccc(OC)c(OC)c2)C(C)C)cc1OC (configuration not stated)	Compound NOT metabolized	Compound NOT metabolized	Compound NOT metabolized	Compound NOT metabolized	Compound NOT metabolized	Compound NOT metabolized	Compound NOT metabolized	Compound NOT metabolized		Compound NOT metabolized	Compound NOT metabolized	Compound NOT metabolized		Compound NOT metabolized	Compound metabolized	Compound metabolized		Compound NOT metabolized	Compound NOT metabolized
O=C1CC2(CCCC2)CC(=O)N1CCCCN1CCN(c2ncccn2)CC1 [BUSPIRONE]		Compound NOT metabolized	Compound NOT metabolized	Compound NOT metabolized	Compound NOT metabolized	Compound NOT metabolized	Compound NOT metabolized	Compound NOT metabolized	Compound NOT metabolized	Compound NOT metabolized	Compound NOT metabolized	Compound NOT metabolized	Compound NOT metabolized	Compound NOT metabolized	Compound NOT metabolized	Compound NOT metabolized	Compound NOT metabolized	Compound NOT metabolized	
COc1cc2nc(N3CCN(C(=O)c4ccco4)CC3)nc(N)c2cc1OC [PRAZOSIN]	Compound NOT metabolized	Compound NOT metabolized	Compound NOT metabolized	Compound NOT metabolized	Compound NOT metabolized	Compound NOT metabolized	Compound NOT metabolized	Compound NOT metabolized		Compound NOT metabolized	Compound NOT metabolized	Compound NOT metabolized	Compound NOT metabolized	Compound NOT metabolized	Compound NOT metabolized	Compound NOT metabolized	Compound NOT metabolized	Compound NOT metabolized	Compound NOT metabolized
OCCOCCN1CCN(C2=Nc3ccccc3Sc3ccccc32)CC1 [QUETIAPINE]	Compound NOT metabolized	Compound NOT metabolized	Compound NOT metabolized	Compound NOT metabolized	Compound NOT metabolized	Compound NOT metabolized	Compound NOT metabolized	Compound NOT metabolized		Compound NOT metabolized	Compound NOT metabolized	Compound NOT metabolized	Compound NOT metabolized	Compound NOT metabolized	Compound NOT metabolized			Compound NOT metabolized	
CN(C)CCc1c[nH]c2ccc(Cn3cncn3)cc12.O=C(O)c1ccccc1 [RIZATRIPTAN BENZOATE]	Compound NOT metabolized		Compound metabolized	Compound NOT metabolized	Compound NOT metabolized	Compound NOT metabolized		Compound NOT metabolized		Compound NOT metabolized	Compound NOT metabolized	Compound NOT metabolized						Compound NOT metabolized	Compound NOT metabolized
CCCc1nn(C)c2c(=O)[nH]c(-c3cc(S(=O)(=O)N4CCN(C)CC4)ccc3OCC)nc12.O=C(O)CC(O)(CC(=O)O)C(=O)O [SILDENAFIL CITRATE]	Compound NOT metabolized	Compound NOT metabolized	Compound metabolized		Compound NOT metabolized	Compound NOT metabolized	Compound NOT metabolized	Compound NOT metabolized	Compound metabolized	Compound NOT metabolized	Compound NOT metabolized	Compound NOT metabolized	Compound NOT metabolized	Compound NOT metabolized	Compound NOT metabolized	Compound NOT metabolized	Compound NOT metabolized	Compound NOT metabolized	
O=C1C(CC[S+]([O-])c2ccccc2)C(=O)N(c2ccccc2)N1c1ccccc1 (configuration not stated) [SULFINPYRAZONE]	Compound NOT metabolized	Compound NOT metabolized	Compound NOT metabolized	Compound metabolized	Compound metabolized	Compound NOT metabolized	Compound NOT metabolized	Compound NOT metabolized		Compound NOT metabolized		Compound NOT metabolized	Compound NOT metabolized	Compound metabolized	Compound NOT metabolized	Compound NOT metabolized	Compound NOT metabolized	Compound NOT metabolized	
O=c1n(CCCN2CCN(c3cccc(Cl)c3)CC2)nc2ccccn12 [TRAZODONE]	Compound NOT metabolized	Compound NOT metabolized	Compound NOT metabolized	Compound NOT metabolized	Compound NOT metabolized	Compound NOT metabolized	Compound NOT metabolized	Compound NOT metabolized		Compound NOT metabolized	Compound NOT metabolized	Compound NOT metabolized	Compound NOT metabolized	Compound NOT metabolized	Compound NOT metabolized	Compound NOT metabolized	Compound NOT metabolized	Compound NOT metabolized	Compound NOT metabolized
C[C@@H](c1ncncc1F)[C@](O)(Cn1cncn1)c1ccc(F)cc1F [VORICONAZOLE]	Compound NOT metabolized	Compound NOT metabolized		Compound metabolized	Compound metabolized	Compound NOT metabolized	Compound NOT metabolized	Compound NOT metabolized	Compound NOT metabolized	Compound NOT metabolized	Compound NOT metabolized	Compound NOT metabolized	Compound metabolized	Compound metabolized	Compound metabolized	Compound metabolized	Compound NOT metabolized	Compound NOT metabolized	
